Test results published in PMC3684959 (Chemistry & biology, 2013).

Legend:
Arp3 (Arp2/3 complex) [1] = target: T1, Arp3 (Arp2/3 complex) (Bos taurus, UniProt P61157); assay: X-ray co-crystal structure, […] Å, with CK-869 also bound; assay type: binding
Arp3 (Arp2/3 complex) [2] = target: T1, Arp3 (Arp2/3 complex); assay: fluorescence titration of BtArp2/[…] complex with ε-ATP; assay type: binding

SMILES | X-ray co-crystal structure, 2.5 Å, with CK-869 also bound (Arp3 (Arp2/3 complex) [1]) | Kd (Arp3 (Arp2/3 complex) [2]) [µM]
Nc1ncnc2c1ncn2[C@@H]1O[C@H](COP(=O)(O)OP(=O)(O)OP(=O)(O)O)[C@@H](O)[C@H]1O [ATP] | show strong density for both ATP and CK-869 bound to Arp3 subunit | –
O=P(O)(O)OP(=O)(O)OP(=O)(O)OC[C@H]1O[C@@H](n2cnc3c2ncn2ccnc32)[C@H](O)[C@@H]1O [ε-ATP] | – | 3 ± 0.4
